In the supplement of paper PMC7600603:

How the values were obtained:
DLD1 NRF2-GOF [1] = settings: 72 h; CellTiter-Glo viability
Procedure, shortened: (§1)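 EC50 and drug sensitivity score, the latter a normalised area under the curve, were calculated from logistic dose-response fits. The fits had four parameters and used CellTiter-Glo viability data read on a Pherastar FS reader 72 h after treatment, normalised to vehicle wells and 100-μM positive-control wells. Treated cells were isogenic DLD1 colorectal cancer cells, NRF2 wild-type or CRISPR gain-of-function, exposed in 384-well plates to library compounds at 5 concentrations spanning a 10,000-fold range.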

DLD1 NRF2-WT [2] = settings: 72 h; CellTiter-Glo viability
Procedure, shortened: as §1

DLD1 NRF2-GOF [3] = test: TC50 cytotoxicity; higher = less toxic; settings: 72 h; CellTox Green cytotoxicity
Procedure, shortened: (§2)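 In 384-well plates, isogenic DLD1 cells with NRF2 wild-type or CRISPR-edited status, grown in DMEM with 10% FBS, received library compounds at 5 concentrations spanning a 10,000-fold range. At 72 h, CellTox Green signals were read on a Pherastar FS reader and scaled between vehicle wells and 100-μM positive-control wells. Cytotoxicity endpoints, TC50 and a drug sensitivity score based on normalised area under the curve, came from logistic dose-response fits.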

DLD1 NRF2-WT [4] = test: TC50 cytotoxicity; higher = less toxic; settings: 72 h; CellTox Green cytotoxicity
Procedure, shortened: as §2

DLD1 NRF2-GOF [5] = test: drug sensitivity score (DSS) cytotoxicity (DSS score); higher = more toxic; extreme values may be limits of the assay; settings: 72 h; CellTox Green cytotoxicity
Procedure, shortened: as §2

DLD1 NRF2-WT [6] = test: as above; settings: 72 h; CellTox Green cytotoxicity
Procedure, shortened: as §2

DLD1 NRF2-GOF [7] = test: drug sensitivity score (DSS) viability (DSS score); higher = more sensitive; extreme values may be limits of the assay; settings: 72 h; CellTiter-Glo viability
Procedure, shortened: as §1

DLD1 NRF2-WT [8] = test: as above; settings: 72 h; CellTiter-Glo viability
Procedure, shortened: as §1

SMILES	EC50 viability (DLD1 NRF2-GOF [1]) [nM]	EC50 viability (DLD1 NRF2-WT [2]) [nM]	TC50 cytotoxicity (DLD1 NRF2-GOF [3]) [nM]	TC50 cytotoxicity (DLD1 NRF2-WT [4]) [nM]	drug sensitivity score (DLD1 NRF2-GOF [5])	drug sensitivity score (DLD1 NRF2-WT [6])	drug sensitivity score (DLD1 NRF2-GOF [7])	drug sensitivity score (DLD1 NRF2-WT [8])
CC(C)c1cc(-c2n[nH]c(=O)n2-c2ccc3c(ccn3C)c2)c(O)cc1O [Ganetespib]	22.8	26.6	> 1000	> 1000	0	0	18.4	17.9
O=C1c2c(O)ccc(O)c2C(=O)c2c(NCCNCCO)ccc(NCCNCCO)c21 [Mitoxantrone]	96.9	67.4	> 1000	> 1000	0	0	10.1	12.3
Cc1ccc(NS(=O)(=O)c2cccc(C#N)c2)c2[nH]cc(C#N)c12 [E7820]	202	531	> 50000	> 50000	0	0	22.9	15.3
COc1cc(N2CCC(N3CCN(C)CC3)CC2)ccc1Nc1ncc(Cl)c(Nc2ccccc2P(C)(C)=O)n1 [Brigatinib]	55.1	399	> 1000	> 1000	0	0	3.4	1.1
CC[C@]12C=CCN3CC[C@@]4(c5cc([C@@]6(C(=O)OC)C[C@@H]7C[C@@H](C(C)(F)F)CN(Cc8c6[nH]c6ccccc86)C7)c(OC)cc5N(C)[C@H]4[C@@](O)(C(=O)OC)[C@@H]1OC(C)=O)[C@@H]32 [Vinflunine]	162	143	–	> 1000	1	1.3	6.9	7
CO[C@H]1C(=O)[C@]2(C)[C@@H](OC)C[C@H]3OC[C@@]3(OC(C)=O)[C@H]2[C@H](OC(=O)c2ccccc2)[C@]2(O)C[C@H](OC(=O)[C@H](O)[C@@H](NC(=O)OC(C)(C)C)c3ccccc3)C(C)=C1C2(C)C [Cabazitaxel]	1.6	1.5	> 1000	–	0.3	6.6	25.7	27.1
CO[C@H]1C[C@@H]2CC[C@@H](C)[C@@](O)(O2)C(=O)C(=O)N2CCCC[C@H]2C(=O)O[C@H]([C@H](C)C[C@@H]2CC[C@@H](OC(=O)C(C)(CO)CO)[C@H](OC)C2)CC(=O)[C@H](C)/C=C(\C)[C@@H](O)[C@@H](OC)C(=O)[C@H](C)C[C@H](C)/C=C/C=C/C=C/1C [Temsirolimus]	> 100	> 100	–	–	–	–	1.3	4.1
COc1cccc2c1C(=O)c1c(O)c3c(c(O)c1C2=O)C[C@@](O)(C(C)=O)C[C@@H]3O[C@H]1C[C@H](N)[C@H](O)[C@H](C)O1 [Daunorubicin]	165	156	–	–	–	–	7.2	8.3
CN1C(=O)N[C@H](Cc2c[nH]c3c(Cl)cccc23)C1=O [Necrostatin 2]	> 10000	> 10000	–	–	–	–	0	0
Cc1cc(Nc2cc(N3CCN(C)CC3)nc(Sc3ccc(NC(=O)C4CC4)cc3)n2)n[nH]1 [Tozasertib]	99.2	155	31.1	–	11.6	5.7	15.9	14.2
COc1ccc(S(=O)(=O)Nc2cccnc2Nc2ccc(O)cc2)cc1 [ABT-751]	301	269	1070	–	3.6	2.1	14.4	15.3
CC(=O)O[C@@]12CO[C@@H]1C[C@H](O)[C@@]1(C)C(=O)[C@H](O)C3=C(C)[C@@H](OC(=O)[C@H](O)[C@@H](NC(=O)OC(C)(C)C)c4ccccc4)C[C@@](O)([C@@H](OC(=O)c4ccccc4)[C@H]21)C3(C)C [Docetaxel]	2.1	3.4	–	–	6.6	6.8	26.6	25.2
N.N.[Cl][Pt][Cl] [Cisplatin]	30600	27900	–	–	1.2	1.4	4.8	5.2
CCN(CC)CCOc1ccc(/C(=C(/Cl)c2ccccc2)c2ccccc2)cc1 [Clomifene]	1840	3080	–	–	–	–	7.8	5.4
CNC(=O)c1cc(Oc2ccc(NC(=O)Nc3ccc(Cl)c(C(F)(F)F)c3)cc2)ccn1 [Sorafenib]	87.1	–	> 1000	> 1000	0	0	3.3	1.2
COc1cc(OC)c(/C=C/S(=O)(=O)Cc2ccc(OC)c(NCC(=O)O)c2)c(OC)c1 [Rigosertib]	107	106	190	–	9.4	5.9	19	21
CN1CCN(c2ccc3nc(-c4c(N)c5c(F)cccc5[nH]c4=O)[nH]c3c2)CC1 [Dovitinib]	> 10000	> 10000	–	–	–	–	0	1.6
CNC(=O)c1ccccc1Nc1nc(Nc2ccc3c(c2OC)CCC[C@H](N2CCN(CCO)CC2)C3)ncc1Cl	450	610	–	1210	1.8	3	9.3	9.2
CCc1c2c(nc3ccc(O)cc13)-c1cc3c(c(=O)n1C2)COC(=O)[C@]3(O)CC [SN-38]	158	337	–	1670	2	2.3	17.5	12.7
Cc1ccc(C(=O)Nc2ccc(CN3CCN(C)CC3)c(C(F)(F)F)c2)cc1C#Cc1cnc2cccnn12 [Ponatinib]	114	226	–	–	–	–	6	4
CS(=O)(=O)CCNCc1ccc(-c2ccc3ncnc(Nc4ccc(OCc5cccc(F)c5)c(Cl)c4)c3c2)o1 [Lapatinib]	28.3	–	> 1000	> 1000	0	0	4.4	2.8
Cn1ncc(Cl)c1-c1cc(C(=O)N[C@H](CN)Cc2cccc(F)c2)sc1Cl [Afuresertib]	> 1000	–	> 1000	> 1000	0	0	0.6	1

Now from value to compound, other results behind:

EC50 viability (DLD1 NRF2-GOF [1]) [nM]	EC50 viability (DLD1 NRF2-WT [2]) [nM]	SMILES	TC50 cytotoxicity (DLD1 NRF2-GOF [3]) [nM]	TC50 cytotoxicity (DLD1 NRF2-WT [4]) [nM]	drug sensitivity score (DLD1 NRF2-GOF [5])	drug sensitivity score (DLD1 NRF2-WT [6])	drug sensitivity score (DLD1 NRF2-GOF [7])	drug sensitivity score (DLD1 NRF2-WT [8])
> 1000	> 1000	CNC(=O)c1ccc(C)c(-n2c(C)cc(OCc3ccc(F)cc3F)c(Br)c2=O)c1	> 1000	> 1000	0	0	0	1.3
92.6	> 1000	Cc1[nH]nc(C(F)(F)F)c1Cc1sc2c(c1C(=O)N1C[C@](C)(O)CO1)c(=O)n(C)c(=O)n2C(C)C [AZD3965]	–	–	–	–	3.5	2.3
1.3	6.7	Cc1c2oc3c(C)ccc(C(=O)N[C@@H]4C(=O)N[C@H](C(C)C)C(=O)N5CCC[C@H]5C(=O)N(C)CC(=O)N(C)[C@@H](C(C)C)C(=O)O[C@@H]4C)c3nc-2c(C(=O)N[C@@H]2C(=O)N[C@H](C(C)C)C(=O)N3CCC[C@H]3C(=O)N(C)CC(=O)N(C)[C@@H](C(C)C)C(=O)O[C@@H]2C)c(N)c1=O [Dactinomycin]	> 1000	–	0	1.4	31.3	24.8
936	1090	COc1cc([C@@H]2c3cc4c(cc3[C@@H](O[C@@H]3O[C@@H]5CO[C@@H](C)O[C@H]5[C@H](O)[C@H]3O)[C@H]3COC(=O)[C@H]23)OCO4)cc(OC)c1O [Etoposide]	> 10000	–	1.8	2.7	6.3	8.5
638	576	Cc1cc(Nc2cc(N3CCN(C)CC3)nc(/C=C/c3ccccc3)n2)n[nH]1 [ENMD-2076]	–	> 10000	4.4	1.4	11.3	11.4
36.5	12.9	Cc1sc2c(c1C)C(c1ccc(Cl)cc1)=N[C@@H](CC(=O)Nc1ccc(OCCOCCOCCOCCNc3cccc4c3C(=O)N(C3CCC(=O)NC3=O)C4=O)cc1)c1nnc(C)n1-2 (some centres undefined) [ARV-825]	> 300	–	1.1	4	5	9.1
578	344	CN[C@@H]1C[C@H]2O[C@@](C)([C@@H]1OC)n1c3ccccc3c3c4c(c5c6ccccc6n2c5c31)C(=O)N[C@H]4O [UCN-01]	–	302	5	10.4	12.6	16.4
21.5	21	Cc1nc(Nc2n[nH]c3c2CN(C(=O)N[C@H](CN(C)C)c2ccccc2)C3(C)C)c2sccc2n1	> 10000	–	1.8	2.1	27.5	28.2
> 2500	–	Cc1nc(NC(=O)N2CCC[C@H]2C(N)=O)sc1-c1ccnc(C(C)(C)C(F)(F)F)c1 [Alpelisib]	> 2500	> 2500	0	0	0.3	2.4
3.1	2.8	Cc1ccc(C(=O)N(CCCN)[C@@H](c2oc3cc(Cl)ccc3c(=O)c2Cc2ccccc2)C(C)C)cc1	> 100	–	1.5	2.8	13.5	12.7
> 1000	–	O=C(NOC[C@H](O)CO)c1ccc(F)c(F)c1Nc1ccc(I)cc1F	> 1000	> 1000	0	0	0.1	2
1070	–	Nc1cc(F)ccc1NC(=O)/C=C/c1cnn(C/C=C/c2ccccc2)c1 [RGFP966]	> 10000	> 10000	0	0	3.7	3.9
4.9	6.3	CC[C@]1(O)C[C@H]2CN(CCc3c([nH]c4ccccc34)[C@@](C(=O)OC)(c3cc4c(cc3OC)N(C=O)[C@H]3[C@@](O)(C(=O)OC)[C@H](OC(C)=O)[C@]5(CC)C=CCN6CC[C@]43[C@@H]65)C2)C1 [Vincristine]	> 1000	–	5.5	6.8	22.8	22.4
> 10000	> 10000	Clc1ccc(Nc2nnc(Cc3ccncc3)c3ccccc23)cc1 [Vatalanib]	–	–	–	–	0	0
58.2	–	CC(=O)Nc1ccc(C(=O)Nc2ccccc2N)cc1 [Tacedinaline]	> 1000	> 1000	0	0	4	1.9
2830	–	O=S(=O)(c1cccc2c(O)nccc12)N1CCCNCC1 [Hydroxyfasudil]	> 19000	> 19000	0	0	3.9	2.4
812	878	Cn1cc(-c2[nH]c3cc(NC(=O)[C@H](N)C4CCCCC4)cc4c3c2C=NNC4=O)cn1	–	> 10000	2.7	1	8.8	9
> 10000	–	COc1cc2c(NC3CCN(C(C)C)CC3)nc(C3CCCCC3)nc2cc1OCCCN1CCCC1 [UNC0638]	> 10000	> 10000	0	0	0.2	2.4
> 1000	99.7	CC1CCC(n2c3cnccc3c3cnc(Nc4ccc5c(n4)CCN(C(=O)CO)C5)nc32)CC1 (centres undefined) [AMG-925]	–	–	–	–	0.5	3.2
4.8	5.1	CC[C@@H]1C(=O)N(C)c2cnc(Nc3ccc(C(=O)N[C@H]4CC[C@H](N5CCN(CC6CC6)CC5)CC4)cc3OC)nc2N1C(C)C [Volasertib]	–	–	6	7	18.8	20.7
